Source: ChEMBL document CHEMBL3045901, “Aryldiones incorporating a [1,4,5]oxadiazepane ring. Part 2: chemistry and biology of the cereal herbicide pinoxaden” (Pest Manag Sci, 2011)
In brackets after ≈: the same amount, converted by molar mass.

Columns and labels:
[1] = system: Triticum aestivum; assay: Drug level in winter Triticum aestivum cv. Soisson (wheat) measured after 6 hr in presence of safener cloquintocet-mexyl; assay type: ADME, organism-based; conditions: in vivo
[2] = system: Triticum aestivum; assay: Drug level in winter Triticum aestivum cv. Soisson (wheat) measured after 6 hr; assay type: ADME, organism-based; conditions: in vivo
[3] = system: Hordeum vulgare; assay: Drug level in winter Hordeum vulgare cv. Manitou (barley) at 0.1 g/l measured after 6 hr in presence of safener cloquintocet-mexyl; assay type: ADME, organism-based; conditions: in vivo
[4] = system: Hordeum vulgare; assay: Drug level in winter Hordeum vulgare cv. Manitou (barley) at 0.1 g/l measured after 6 hr; assay type: ADME, organism-based; conditions: in vivo
[5] = Aqueous hydrolysis of the compound at pH 9 at 20 degC; assay type: physicochemical; conditions: aqueous solution, read-out: DT50 (converted)
[6] = Aqueous hydrolysis of the compound at pH 4 at 20 degC; assay type: physicochemical; conditions: aqueous solution, read-out: DT50 (converted)
[7] = Aqueous hydrolysis of the compound at pH 5 at 20 degC; assay type: physicochemical; conditions: aqueous solution, read-out: DT50 (converted)
[8] = Aqueous hydrolysis of the compound at pH 7 at 20 degC; assay type: physicochemical; conditions: aqueous solution, read-out: DT50 (converted)
[9] = Lipophilicity, log P of the compound at 25 degC; assay type: physicochemical; conditions: octanol/water
[10] = Solubility in water at 25 degC; assay type: physicochemical
[11] = system: Avena fatua; assay: Drug level in Avena fatua at 0.1 g/l measured after 6 hr in presence of safener cloquintocet-mexyl; assay type: ADME, organism-based; conditions: in vivo
[12] = system: Avena fatua; assay: Drug level in Avena fatua at 0.1 g/l measured after 6 hr; assay type: ADME, organism-based; conditions: in vivo
[13] = system: Lolium perenne; assay: Drug level in Lolium perenne (perennial ryegrass) measured at 0.1 g/l after 6 hr in presence of safener cloquintocet-mexyl; assay type: ADME, organism-based; conditions: in vivo
[14] = system: Lolium perenne; assay: Drug level in Lolium perenne (perennial ryegrass) measured at 0.1 g/l after 6 hr; assay type: ADME, organism-based; conditions: in vivo
[15] = system: Hordeum vulgare; assay: Drug metabolism in winter Hordeum vulgare cv. Manitou (barley) assessed as total inactive metabolites at 0.1 g/l measured after 16 hr; assay type: ADME, organism-based; conditions: in vivo

Question: For `CCc1cc(C)cc(CC)c1-c1c(OC(=O)C(C)(C)C)n2n(c1=O)CCOCC2` [PINOXADEN], which Drug uptake [1] is on record?
Answer: 0%

Question: And the Drug uptake [2]?
Answer: 0%

Question: And the Drug uptake [3]?
Answer: 1.5%

Question: What about the Drug uptake [4] of the same compound?
Answer: 2.1%

Question: And the half-life [5]?
Answer: 0.3 days

Question: And the half-life [6]?
Answer: 24.1 days

Question: And the half-life [7]?
Answer: 25.3 days

Question: And the half-life [8]?
Answer: 14.9 days

Question: And the logP [9]?
Answer: 3.2

Question: What about the solubility [10] of the same compound?
Answer: 200 µg/mL (≈ 499 µM)

Question: What about the Drug uptake [11] of the same compound?
Answer: 0%

Question: And the Drug uptake [12]?
Answer: 0%

Question: And the Drug uptake [13]?
Answer: 0%

Question: And the Drug uptake [14]?
Answer: 0%

Question: And the Drug metabolism [15]?
Answer: 49.6%
